According to US20230128402A1 (The Trustees of Princeton University, priority 2020, published 2023):

Target: T1, mALDH1a3 (Mus musculus, UniProt Q9JHW9)
T1 construct: made in house; host or cells: E. coli BL21-DE3, pET-Aldh1a3
T1 sequence (Q9JHW9 1-512): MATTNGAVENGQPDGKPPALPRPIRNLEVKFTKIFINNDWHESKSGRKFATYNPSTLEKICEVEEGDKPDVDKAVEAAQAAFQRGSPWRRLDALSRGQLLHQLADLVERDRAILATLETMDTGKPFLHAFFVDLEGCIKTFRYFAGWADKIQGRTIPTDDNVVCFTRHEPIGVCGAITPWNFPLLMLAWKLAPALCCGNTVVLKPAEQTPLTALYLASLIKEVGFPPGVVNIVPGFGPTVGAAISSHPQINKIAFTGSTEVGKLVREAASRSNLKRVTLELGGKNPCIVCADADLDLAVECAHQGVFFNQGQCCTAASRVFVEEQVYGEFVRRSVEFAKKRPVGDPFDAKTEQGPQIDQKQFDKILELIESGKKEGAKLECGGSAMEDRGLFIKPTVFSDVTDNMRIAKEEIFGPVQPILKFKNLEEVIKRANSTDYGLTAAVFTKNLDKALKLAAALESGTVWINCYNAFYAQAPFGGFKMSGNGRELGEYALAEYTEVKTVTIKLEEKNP
Experiment: Aldh1a3 enzyme inhibition assay, recombinant mALDH1a3
Assay type: biochemical
Settings: resorufin fluorescence, 20° C.
From the text: (§1) Recombinant enzyme and inhibitor added immediately before assay. Reaction rate measured by resorufin fluorescence.

| SMILES | IC50 [nM] |
| --- | --- |
| CCc1cnccc1C(=O)Nc1ccc2c(c1)CCC(=O)N2C [Compound 23, 3-ethyl-N-(1-methyl-2-oxo-3,4-dihydroquinolin-6-yl)pyridine-4-carboxamide] | 1000 to 5000 |
| CCc1cc(=O)n(C)cc1C(=O)Nc1ccc2c(c1)CCC(=O)N2 [Compound 76, 4-ethyl-1-methyl-6-oxo-N-(2-oxo-3,4-dihydro-1H-quinolin-6-yl)pyridine-3-carboxamide] | > 5000 |
| CCc1cnc(C)cc1C(=O)Nc1cc2c(cc1F)NC(=O)CC2 [Compound 8] | 100 to 250 |
| N#Cc1cccc2nc(Nc3ccc4c(c3)CCC(=O)N4)ccc12 [Compound 86, 2-[(2-oxo-3,4-dihydro-1H-quinolin-6-yl)amino]quinoline-5-carbonitrile] | 1000 to 5000 |
| Cc1cccc2nc(Nc3ccc4c(c3)CCC(=O)N4)ccc12 [Compound 87, 6-[(5-methyl-2-quinolyl)amino]-3,4-dihydro-1H-quinolin-2-one] | < 100 |
| CCc1cc(C#N)ccc1C(=O)Nc1cc2c(cc1F)NC(=O)C(C)(C)C2 [Compound 42, 4-cyano-2-ethyl-N-(7-fluoro-3,3-dimethyl-2-oxo-1,4-dihydroquinolin-6-yl)benzamide] | 1000 to 5000 |
| CCc1cnc(Cl)cc1C(=O)Nc1cc2c(cc1F)NC(=O)CC2 [Compound 80, 2-chloro-5-ethyl-N-(7-fluoro-2-oxo-3,4-dihydro-1H-quinolin-6-yl)pyridine-4-carboxamide] | 250 to 1000 |
| Cc1nc(Nc2ccc3c(c2)CC(C)(C)C(=O)N3)nc2ccccc12 [Compound 132, 3,3-dimethyl-6-[(4-methylquinazolin-2-yl)amino]-1,4-dihydroquinolin-2-one] | 250 to 1000 |

More lines, now with the values ahead:

| IC50 [nM] | SMILES |
| --- | --- |
| > 5000 | CC1(C)Cc2cc(Nc3ccc4ccncc4n3)ccc2NC1=O [Compound 94, 3,3-dimethyl-6-(1,7-naphthyridin-2-ylamino)-1,4-dihydroquinolin-2-one] |
| 250 to 1000 | CCc1cnc(C)cc1C(=O)Nc1ccc2c(c1)CCC(=O)N2 [Compound 56, 5-ethyl-2-methyl-N-(2-oxo-3,4-dihydro-1H-quinolin-6-yl)pyridine-4-carboxamide] |
| 250 to 1000 | CCc1c(C(=O)Nc2ccc3c(c2)CCC(=O)N3)ccnc1C [Compound 55, 3-ethyl-2-methyl-N-(2-oxo-3,4-dihydro-1H-quinolin-6-yl)pyridine-4-carboxamide] |
| 250 to 1000 | CC1(C)Cc2cc(Nc3ccc4c(Cl)cccc4n3)ccc2NC1=O [Compound 112, 6-[(5-chloro-2-quinolyl)amino]-3,3-dimethyl-1,4-dihydroquinolin-2-one] |
| > 5000 | O=C1CCc2cc(NC(=O)c3ccncc3C(F)(F)F)ccc2N1 [Compound 54, N-(2-oxo-3,4-dihydro-1H-quinolin-6-yl)-3-(trifluoromethyl)pyridine-4-carboxamide] |
| > 5000 | CCc1cnccc1C(=O)Nc1ccc2c(c1)C(C)(C)C(=O)N2 [Compound 137] |
| 1000 to 5000 | CC1(C)Cc2cc(Nc3ccc4ccccc4n3)ccc2NC1=O [Compound 46, 3,3-dimethyl-6-(2-quinolylamino)-1,4-dihydroquinolin-2-one] |
| > 5000 | CCc1cnccc1NC(=O)c1ccc2c(c1)CCC(=O)N2 [Compound 26, N-(3-ethyl-4-pyridyl)-2-oxo-3,4-dihydro-1H-quinoline-6-carboxamide] |
| 1000 to 5000 | C=CCc1cnccc1C(=O)Nc1ccc2c(c1)CCC(=O)N2 [Compound 71, 3-allyl-N-(2-oxo-3,4-dihydro-1H-quinolin-6-yl)pyridine-4-carboxamide] |
| > 5000 | CC1(C)Cc2cc(Nc3ccc4c(c3)NC(=O)CC4)ccc2NC1=O [Compound 114, 3,3-dimethyl-6-[(2-oxo-3,4-dihydro-1H-quinolin-7-yl)amino]-1,4-dihydroquinolin-2-one] |

Target: T2, ALDH1a3 (Homo sapiens, UniProt P47895)
T2 sequence (P47895 1-512): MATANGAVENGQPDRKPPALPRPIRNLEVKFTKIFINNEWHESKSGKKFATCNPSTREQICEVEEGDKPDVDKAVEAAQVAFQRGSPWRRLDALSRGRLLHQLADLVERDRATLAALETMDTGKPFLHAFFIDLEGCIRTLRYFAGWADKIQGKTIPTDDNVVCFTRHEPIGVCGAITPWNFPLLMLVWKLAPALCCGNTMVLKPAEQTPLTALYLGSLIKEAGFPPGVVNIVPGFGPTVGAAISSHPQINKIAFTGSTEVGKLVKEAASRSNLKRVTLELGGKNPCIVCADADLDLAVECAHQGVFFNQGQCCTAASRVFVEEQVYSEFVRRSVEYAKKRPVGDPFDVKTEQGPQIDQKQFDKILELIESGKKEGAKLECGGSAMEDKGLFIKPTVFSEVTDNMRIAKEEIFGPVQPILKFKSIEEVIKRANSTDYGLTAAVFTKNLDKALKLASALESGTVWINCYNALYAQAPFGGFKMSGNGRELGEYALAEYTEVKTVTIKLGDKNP
Experiment: Aldh1a3 enzyme inhibition assay, recombinant hALDH1a3
Assay type: biochemical
Design: made in house; host or cells: E. coli BL21-DE3, pET-Aldh1a3
Settings: resorufin fluorescence, 20° C.
From the text: as §1

| SMILES | IC50 [nM] |
| --- | --- |
| CCc1cnccc1C(=O)Nc1ccc2c(c1)CCC(=O)N2C [Compound 23, 3-ethyl-N-(1-methyl-2-oxo-3,4-dihydroquinolin-6-yl)pyridine-4-carboxamide] | > 5000 |
| CCc1cc(=O)n(C)cc1C(=O)Nc1ccc2c(c1)CCC(=O)N2 [Compound 76, 4-ethyl-1-methyl-6-oxo-N-(2-oxo-3,4-dihydro-1H-quinolin-6-yl)pyridine-3-carboxamide] | > 5000 |
| CCc1cnc(C)cc1C(=O)Nc1cc2c(cc1F)NC(=O)CC2 [Compound 8] | < 100 |
| N#Cc1cccc2nc(Nc3ccc4c(c3)CCC(=O)N4)ccc12 [Compound 86, 2-[(2-oxo-3,4-dihydro-1H-quinolin-6-yl)amino]quinoline-5-carbonitrile] | > 5000 |
| Cc1cccc2nc(Nc3ccc4c(c3)CCC(=O)N4)ccc12 [Compound 87, 6-[(5-methyl-2-quinolyl)amino]-3,4-dihydro-1H-quinolin-2-one] | 250 to 1000 |
| CCc1cc(C#N)ccc1C(=O)Nc1cc2c(cc1F)NC(=O)C(C)(C)C2 [Compound 42, 4-cyano-2-ethyl-N-(7-fluoro-3,3-dimethyl-2-oxo-1,4-dihydroquinolin-6-yl)benzamide] | 1000 to 5000 |
| CCc1cnc(Cl)cc1C(=O)Nc1cc2c(cc1F)NC(=O)CC2 [Compound 80, 2-chloro-5-ethyl-N-(7-fluoro-2-oxo-3,4-dihydro-1H-quinolin-6-yl)pyridine-4-carboxamide] | < 100 |
| Cc1nc(Nc2ccc3c(c2)CC(C)(C)C(=O)N3)nc2ccccc12 [Compound 132, 3,3-dimethyl-6-[(4-methylquinazolin-2-yl)amino]-1,4-dihydroquinolin-2-one] | 250 to 1000 |

Further lines, results first:

| IC50 [nM] | SMILES |
| --- | --- |
| 1000 to 5000 | CC1(C)Cc2cc(Nc3ccc4ccncc4n3)ccc2NC1=O [Compound 94, 3,3-dimethyl-6-(1,7-naphthyridin-2-ylamino)-1,4-dihydroquinolin-2-one] |
| 100 to 250 | CCc1cnc(C)cc1C(=O)Nc1ccc2c(c1)CCC(=O)N2 [Compound 56, 5-ethyl-2-methyl-N-(2-oxo-3,4-dihydro-1H-quinolin-6-yl)pyridine-4-carboxamide] |
| 250 to 1000 | CCc1c(C(=O)Nc2ccc3c(c2)CCC(=O)N3)ccnc1C [Compound 55, 3-ethyl-2-methyl-N-(2-oxo-3,4-dihydro-1H-quinolin-6-yl)pyridine-4-carboxamide] |
| 250 to 1000 | CC1(C)Cc2cc(Nc3ccc4c(Cl)cccc4n3)ccc2NC1=O [Compound 112, 6-[(5-chloro-2-quinolyl)amino]-3,3-dimethyl-1,4-dihydroquinolin-2-one] |
| 250 to 1000 | O=C1CCc2cc(NC(=O)c3ccncc3C(F)(F)F)ccc2N1 [Compound 54, N-(2-oxo-3,4-dihydro-1H-quinolin-6-yl)-3-(trifluoromethyl)pyridine-4-carboxamide] |
| > 5000 | CCc1cnccc1C(=O)Nc1ccc2c(c1)C(C)(C)C(=O)N2 [Compound 137] |
| 1000 to 5000 | CC1(C)Cc2cc(Nc3ccc4ccccc4n3)ccc2NC1=O [Compound 46, 3,3-dimethyl-6-(2-quinolylamino)-1,4-dihydroquinolin-2-one] |
| > 5000 | CCc1cnccc1NC(=O)c1ccc2c(c1)CCC(=O)N2 [Compound 26, N-(3-ethyl-4-pyridyl)-2-oxo-3,4-dihydro-1H-quinoline-6-carboxamide] |
| 250 to 1000 | C=CCc1cnccc1C(=O)Nc1ccc2c(c1)CCC(=O)N2 [Compound 71, 3-allyl-N-(2-oxo-3,4-dihydro-1H-quinolin-6-yl)pyridine-4-carboxamide] |
| > 5000 | CC1(C)Cc2cc(Nc3ccc4c(c3)NC(=O)CC4)ccc2NC1=O [Compound 114, 3,3-dimethyl-6-[(2-oxo-3,4-dihydro-1H-quinolin-7-yl)amino]-1,4-dihydroquinolin-2-one] |
